The record followed here is patent US20230135635A1, “INHIBITORS OF ULK1/2 AND METHODS OF USING SAME” (SALK INSTITUTE FOR BIOLOGICAL STUDIES, priority 2020, published 2023).

As usually defined, the IC50 is the point on the concentration scale where inhibition reaches its midpoint.

The target in one assay is T1, recombinant human ULK1 protein (1-649) (Homo sapiens, UniProt O75385).
T1 construct: recombinant human ULK1 protein (1-649, SignalChem #U01-11G); purchased SignalChem U01-11G
T1 sequence (O75385 1-649): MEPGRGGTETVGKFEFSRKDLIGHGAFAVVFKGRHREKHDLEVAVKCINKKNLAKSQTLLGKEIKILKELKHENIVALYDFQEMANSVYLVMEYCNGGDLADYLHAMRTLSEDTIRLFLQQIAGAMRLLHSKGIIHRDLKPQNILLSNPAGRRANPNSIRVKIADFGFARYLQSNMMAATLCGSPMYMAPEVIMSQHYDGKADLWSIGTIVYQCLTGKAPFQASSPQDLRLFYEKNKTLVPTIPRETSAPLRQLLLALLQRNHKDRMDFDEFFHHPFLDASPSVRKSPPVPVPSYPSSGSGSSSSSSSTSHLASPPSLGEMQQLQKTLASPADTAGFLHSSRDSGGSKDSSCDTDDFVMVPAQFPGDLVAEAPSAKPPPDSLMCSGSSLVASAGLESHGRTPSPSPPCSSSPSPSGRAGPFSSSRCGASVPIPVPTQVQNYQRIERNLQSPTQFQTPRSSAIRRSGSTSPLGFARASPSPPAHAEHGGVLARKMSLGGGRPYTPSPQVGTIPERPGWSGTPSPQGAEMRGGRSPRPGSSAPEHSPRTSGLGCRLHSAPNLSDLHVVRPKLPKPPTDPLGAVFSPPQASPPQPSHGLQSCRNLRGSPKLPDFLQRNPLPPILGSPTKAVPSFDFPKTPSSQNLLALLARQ
The assay is described as follows: ULK1 inhibition assay (ADP Glo). In kind it is biochemical. The following applies: Table 1; 25 uM ATP, MBP substrate, one hour. On the procedure: Illustrative compounds of Formula I and related analogs are shown in Table 1 (along with their respective IC50 values for ULK1 inhibition assays). For ADP Glo assay, IC50s are represented nM, with A representing IC50<1 nM, B representing 10 nM>IC50>1 nM, and C representing IC50>10 nM. NT indicates the compound was not tested. ULK1 inhibition assays were performed in a 5 uL reaction volume containing 2 ug/mL recombinant human ULK1 protein (1-649, SignalChem #U01-11G) and 80 ug/mL myelin basic protein (MBP, Sigma-Aldrich #M1891) in the presence of 25 uM ATP (Sigma-Aldrich A7699). ULK 1 inhibition was assessed after one hour. Compounds were tested in triplicate in a 16-dose IC50 mode with 3-fold serial dilution and a starting dose of 30 uM. Staurosporine, a non-selective protein kinase inhibitor, was used in the assay as a positive control.
According to another embodiment, the present disclosure provides methods of producing the above-defined compounds. The compounds may be synthesized using any suitable techniques. Advantageously, these compounds are conveniently synthesized from readily available starting materials. Synthetic chemistry transformations and methodologies useful in synthesizing the compounds described herein are known in the art and include, for example, those described in R. Larock, Comprehensive Organic Transformations (1989); T. W. Greene and P. G. M. Wuts, Protective Groups in Organic Synthesis, 2d. Ed. (1991); L. Fieser and M. Fieser, Fieser and Fieser's Reagents for Organic Synthesis (1994); and L. Paquette, ed., Encyclopedia of Reagents for Organic Synthesis (1995).). In general, synthesis and measurements of ULK1 inhibitory activity of the compounds described herein was performed using method analogous to those previously described in PCT International Application No. PCT/US2015/046777 which is hereby incorporated by reference in its entirety.
In the case of `FC(F)(F)c1cnc(Nc2ccc3c(c2)CN(CCS)CC3)nc1NC1CC1` [Compound A78], the IC50 was less than 1 nM.
The same measure, in the same setting: with `NC(=O)N1CCc2cc(Nc3ncc(C(F)(F)F)c(NC4CC4)n3)ccc2C1` [Compound A14] the figure was 1 to 10 nM; with `CNC(=O)c1ccccc1Nc1nc(Nc2ccc3c(c2)CN(Cc2ccncn2)CC3)ncc1Br` [Compound A160, 2-[5-Bromo-2-(2-pyrimidin-4-ylmethyl-1,2,3,4-tetrahydro-isoquinolin-7-ylamino)-pyrimidin-4-ylamino]-N-methyl-benzamide], greater than 10 nM.
The same measure, in the same setting: the result for `CSCCN1CCc2ccc(Nc3ncc(C(F)(F)F)c(NC4CC4)n3)cc2C1` [Compound A81] reads less than 1 nM.
For the compound `FC(F)(F)c1cnc(Nc2ccc3c(c2)CN(Cc2ccoc2)CC3)nc1NC1CC1` [Compound A101], the IC50 was less than 1 nM.
The same measure, in the same setting: the result for `CNC(=O)c1ccccc1Nc1nc(Nc2ccc3c(c2)CCN(Cc2ccncc2)C3)ncc1Br` [Compound A131, 2-[5-Bromo-2-(2-pyridin-4-ylmethyl-1,2,3,4-tetrahydro-isoquinolin-6-ylamino)-pyrimidin-4-ylamino]-N-methyl-benzamide] reads greater than 10 nM; that for `NC(=O)CCN1CCc2cc(Nc3ncc(C(F)(F)F)c(NC4CC4)n3)ccc2C1` [Compound A58], less than 1 nM.
On the same count and under the same terms, with `CNC(=O)c1ccccc1Nc1nc(Nc2ccc3c(c2)CN(Cc2ccccn2)CC3)ncc1Br` [Compound A163, 2-[5-Bromo-2-(2-pyridin-2-ylmethyl-1,2,3,4-tetrahydro-isoquinolin-7-ylamino)-pyrimidin-4-ylamino]-N-methyl-benzamide] the figure was greater than 10 nM.
Same read-out and setting: the result for `NCCN1CCc2ccc(Nc3ncc(C(F)(F)F)c(NC4CC4)n3)cc2C1` [Compound A103] reads 1 to 10 nM; that for `N[C@@H](CO)C(=O)N1CCc2cc(Nc3ncc(C(F)(F)F)c(NC4CC4)n3)ccc2C1` (stereo in doubt) [Compound A57], 1 to 10 nM.
`COC(=O)N1CCc2cc(Nc3ncc(C(F)(F)F)c(NC4CC4)n3)ccc2C1` [Compound A4]: the IC50 lay within 1 to 10 nM.
On the same count and under the same terms, with `CNC(=O)c1ccccc1Nc1nc(Nc2ccc3c(c2)CCN(C(=O)CN)C3)ncc1Br` [Compound A132, 2-{2-[2-(2-Amino-acetyl)-1,2,3,4-tetrahydro-isoquinolin-6-ylamino]-5-bromo-pyrimidin-4-ylamino}-N-methyl-benzamide] the figure was greater than 10 nM; with `FC(F)(F)c1cnc(Nc2ccc3c(c2)CCN(Cc2ccco2)C3)nc1NC1CC1` [Compound A46], less than 1 nM.
The same measure, in the same setting: the result for `CN1CCc2cc(Nc3ncc(Br)c(NC4CC4)n3)ccc2C1` [Compound A65] reads less than 1 nM; that for `O=C(O)CCC(=O)N1CCc2cc(Nc3ncc(C(F)(F)F)c(NC4CC4)n3)ccc2C1` [Compound A20], less than 1 nM.
As to `CN1CCc2cc(Nc3nccc(NC4CC4)n3)ccc2C1` [Compound A72], the IC50 was greater than 10 nM.
Still for that read-out and setting: the result for `O=C(CN1CCOCC1)N1CCc2cc(Nc3ncc(C(F)(F)F)c(NC4CC4)n3)ccc2C1` [Compound A115] reads 1 to 10 nM; that for `CNC(=O)c1ccccc1Nc1nc(Nc2ccc3c(c2)CCN(C)C3)ncc1Br` [Compound A135, 2-[5-Bromo-2-(2-methyl-1,2,3,4-tetrahydro-isoquinolin-6-ylamino)-pyrimidin-4-ylamino]-N-methyl-benzamide], greater than 10 nM.
In the case of `CN1CCN(C(=O)N2CCc3cc(Nc4ncc(C(F)(F)F)c(NC5CC5)n4)ccc3C2)CC1` [Compound A37], the IC50 is less than 1 nM.
On the same count and under the same terms, the result for `CC(=O)CCN1CCc2cc(Nc3ncc(C(F)(F)F)c(NC4CC4)n3)ccc2C1` [Compound A56] reads less than 1 nM; that for `CNC(=O)c1ccccc1Nc1nc(Nc2ccc3c(c2)CN(C(=O)CN)CC3)ncc1Br` [Compound A152, 2-{2-[2-(2-Amino-acetyl)-1,2,3,4-tetrahydro-isoquinolin-7-ylamino]-5-bromo-pyrimidin-4-ylamino}-N-methyl-benzamide], greater than 10 nM.
On the same count and under the same terms, with `FC(F)(F)c1cnc(Nc2ccc3c(c2)CN(CC2OCCO2)CC3)nc1NC1CC1` [Compound A79] the figure was 1 to 10 nM; with `FC(F)(F)c1cnc(Nc2ccc3c(c2)CCN(CC2CCNC2)C3)nc1NC1CC1` (stereo not drawn) [Compound A43], less than 1 nM.
For the compound `O=C(NCCO)c1cnc(Nc2ccc3c(c2)CCNC3)nc1NC1CC1` [Compound A36], the half-inhibitory concentration (IC50) is greater than 10 nM.
Same read-out and setting: with `CS(=O)(=O)N1CCc2cc(Nc3ncc(C(F)(F)F)c(NC4CC4)n3)ccc2C1` [Compound A12] the figure was 1 to 10 nM.
Turning to `FC(F)(F)c1cnc(Nc2ccc3c(c2)CN(Cc2cc[nH]c2)CC3)nc1NC1CC1` [Compound A94], the IC50 fell in the range of 1 to 10 nM.
As for `CNC(=O)c1ccccc1Nc1nc(Nc2ccc3c(c2)CN(C(=O)CCC(=O)O)CC3)ncc1Br` [Compound A156, 4-{7-[5-Bromo-4-(2-methylcarbamoyl-phenylamino)-pyrimidin-2-ylamino]-3,4-dihydro-1H-isoquinolin-2-yl}-4-oxo-butyric acid], the IC50 is greater than 10 nM.
In the case of `CNC(=O)c1ccccc1Nc1nc(Nc2ccc3c(c2)CN(C(=O)CCN)CC3)ncc1Br` [Compound A155, 2-{2-[2-(3-Amino-propionyl)-1,2,3,4-tetrahydro-isoquinolin-7-ylamino]-5-bromo-pyrimidin-4-ylamino}-N-methyl-benzamide], the IC50 was greater than 10 nM.
As to `CN1CCc2cc(Nc3ncc(C(F)(F)F)c(NC4CC4)n3)ccc2C1` [Compound A1], the IC50 is less than 1 nM.

Still in this assay, the particulars now being: Table 2.
For the compound `COC(=O)c1ccccc1Oc1nc(Nc2ccc(OC(F)(F)F)cc2)ncc1Br` [Compound B13], the IC50 was greater than 1000 nM.
On the same count and under the same terms, with `COc1cc(Nc2ncc(Br)c(Oc3ccccc3C(=O)N3CCOCC3)n2)cc(OC)c1OC` [Compound B9] the figure was greater than 1000 nM; with `COC(=O)c1ccccc1Oc1nc(Nc2ccc3c(c2)OCCO3)ncc1Br` [Compound B14], greater than 1000 nM; with `COC(=O)CN(C)C(=O)c1ccccc1Oc1nc(Nc2cc(OC)c(OC)c(OC)c2)ncc1Br` [Compound B5], 100 to 1000 nM.
Still for that read-out and setting: the result for `COC(=O)c1ccccc1Oc1nc(Nc2ccc(OC)c(OC)c2)ncc1Br` [Compound B17] reads greater than 1000 nM; that for `COC(=O)c1ccccc1Oc1nc(Nc2ccc(OC)nc2)ncc1Br` [Compound B39], greater than 1000 nM.
The same measure, in the same setting: the result for `COc1cc(Nc2ncc(Br)c(Oc3ccccc3C(=O)NCC(F)(F)F)n2)cc(OC)c1OC` [Compound B6] reads 100 to 1000 nM; that for `COC(=O)c1ccccc1Oc1nc(Nc2ccc(OC(F)F)cc2)ncc1Br` [Compound B25], greater than 1000 nM.
Turning to `COc1cc(Nc2ncc(Br)c(Oc3ccccc3C(=O)NCCC#N)n2)cc(OC)c1OC` [Compound B10], the IC50 is greater than 1000 nM.

The assay is the same for the next values; noted with them: Table 3.
As for `COc1cc(Nc2ncc(Br)c(Nc3ccccc3CN(C)CC#N)n2)cc(OC)c1OC` [Compound C26], the IC50 was in the range of 5 to 100 nM.
With `COc1cc(Nc2nccc(Nc3ccccc3CN)n2)cc(OC)c1OC` [Compound C13], the IC50 was greater than 100 nM.
Still for that read-out and setting: the result for `COc1cc(Nc2ncc(Br)c(Oc3ccccc3CO)n2)cc(OC)c1OC` [Compound C1] reads greater than 100 nM; that for `CC(=O)Nc1ccc(Nc2ncc(Br)c(Nc3ccccc3CO)n2)cc1` [Compound C7], 5 to 100 nM; that for `COc1cc(Oc2ncc(Br)c(Nc3ccccc3CO)n2)cc(OC)c1OC` [Compound C10], greater than 100 nM.
`COc1cc(Nc2ncc(Br)c(Nc3ccccc3C(=O)NCC(F)F)n2)cc(OC)c1OC` [Compound E22, 2-((5-Bromo-2-((3,4,5-trimethoxyphenyl)amino)pyrimidin-4-yl)amino)-N-(2,2-difluoroethyl)benzamide]: the IC50 lay within 5 to 100 nM.
With `COc1cc(Nc2ncc(Br)c(Oc3ccc(NC(=O)C4(C(=O)Nc5ccc(F)cc5)CC4)cc3F)n2)cc(OC)c1OC` [Compound C28, N-(4-((5-Bromo-2-((3,4,5-trimethoxyphenyl)amino)pyrimidin-4-yl)oxy)-3-fluorophenyl)-N-(4-fluorophenyl)cyclopropane-1,1-dicarboxamide], the IC50 is greater than 100 nM.
